For 29 compounds, fold induction results are on record in US8759535B2, “Substituted fused imidazole derivatives, pharmaceutical compositions, and methods of use thereof” (High Point Pharmaceuticals, LLC, priority 2010, dated 2014).

Where a name gives a salt, the structure may show the parent alone.

The first experiment concerns HMOX1. The experiment is described as follows: HMOX1 Protein Assay (immunostaining of HO-1 in NHLF cells, GE InCell 1000). The note with it: Homo sapiens, fold change above DMSO treated cells, 3 μM compound (asterisk), 16 h. The experiment is classed as cell-based. The procedure, abridged: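 NHLF cells seeded overnight in FGM-2, then exposed to compound or DMSO vehicle for 16 h, fixed, and immunostained for HO-1 with Hoechst nuclear counterstain; imaged on InCell 1000. Values are fold change over DMSO-treated cells, generally at 5 μM (0.8% DMSO), with asterisked entries at 3 μM.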
`CN1CCN(C(=O)CNC(=O)c2ccc3c(c2)nc(Nc2nc4ccc(C(F)(F)F)cc4s2)n3C)CC1` [Example 427, 1-Methyl-2-(6-trifluoromethyl-benzothiazol-2-ylamino)-1H-benzoimidazole-5-carboxylic acid [2-(4-methyl-piperazin-1-yl)-2-oxo-ethyl]-amide] registered a fold induction at 3 µM of 17.

Turning to `Cn1c(Nc2nc3ccc(C(F)(F)F)cc3s2)nc2cc(C(=O)NCCC(=O)N3CCOCC3)ccc21` [Example 374, 1-Methyl-2-(6-trifluoromethyl-benzothiazol-2-ylamino)-1H-benzoimidazole-5-carboxylic acid (3-morpholin-4-yl-3-oxo-propyl)-amide], the fold induction at 3 µM stood at 34.2.

In turn, `Cn1c(Nc2nc3ccc(C(F)(F)F)cc3s2)nc2cc(C(=O)NCCCCCO)ccc21` [Example 228, 1-Methyl-2-(6-trifluoromethyl-benzothiazol-2-ylamino)-1H-benzoimidazole-5-carboxylic acid (5-hydroxy-pentyl)-amide] registered a fold induction at 3 µM of 26.

The same experiment, now with this note: Homo sapiens, fold change above DMSO treated cells, 5 μM compound, 16 h.
Compound `Cn1c(Nc2nc3ccc(OC(F)(F)F)cc3s2)nc2cc(C(=O)NC3CCN(S(C)(=O)=O)CC3)ccc21` [Example 90, 1-Methyl-2-(6-trifluoromethoxy-benzothiazol-2-ylamino)-1H-benzoimidazole-5-carboxylic acid (1-methanesulfonyl-piperidin-4-yl)-amide] showed a fold induction at 5 µM of 8.1.

For the compound `Cn1c(Nc2nc3ccc(Cl)cc3s2)nc2ccc(C(=O)NCCOCCO)cc21` [Example 288, 2-(6-Chloro-benzothiazol-2-ylamino)-3-methyl-3H-benzoimidazole-5-carboxylic acid [2-(2-hydroxy-ethoxy)-ethyl]-amide], the fold induction at 5 µM is 47.

Take `CN(C)[C@@H]1CCN(C(=O)CNC(=O)c2ccc3c(c2)nc(Nc2nc4ccc(Cl)cc4s2)n3C)C1` [Example 417, 2-(6-Chloro-benzothiazol-2-ylamino)-1-methyl-1H-benzoimidazole-5-carboxylic acid [2-((R)-3-dimethylamino-pyrrolidin-1-yl)-2-oxo-ethyl]-amide]: the fold induction at 5 µM was 62.8.

Turning to `Cn1c(Nc2nc3ccc(OC(F)(F)F)cc3s2)nc2cc(C(=O)NCCC(=O)O)ccc21` [Example 98, 3-{[2-(6-Trifluoromethoxy-benzothiazol-2-ylamino)-1-methyl-1H-benzimidazole-5-carbonyl]-amino}-propionic acid], the fold induction at 5 µM was 13.8.

`COC(=O)c1ccc2c(c1)nc(Nc1nc3ccc(C)cc3s1)n2C` [Example 114, 1-Methyl-2-(6-methyl-benzothiazol-2-ylamino)-1H-benzoimidazole-5-carboxylic acid methyl ester] displayed a fold induction at 5 µM of 5.1.

In turn, `Cn1c(Nc2nc3ccc(Cl)cc3s2)nc2cc(C(=O)NCC(=O)NC3CCOC3)ccc21` (centres unmarked) [Example 384, 2-(6-Chloro-benzothiazol-2-ylamino)-1-methyl-1H-benzoimidazole-5-carboxylic acid [(tetrahydro-furan-3-ylcarbamoyl)-methyl]-amide] yielded a fold induction at 5 µM of 26.

In turn, `CN(C)[C@H]1CCN(C(=O)CNC(=O)c2ccc3c(c2)nc(Nc2nc4ccc(Cl)cc4s2)n3C)C1` [Example 418, 2-(6-Chloro-benzothiazol-2-ylamino)-1-methyl-1H-benzoimidazole-5-carboxylic acid [2-((S)-3-dimethylamino-pyrrolidin-1-yl)-2-oxo-ethyl]-amide] came in with a fold induction at 5 µM of 63.3.

`CN1CCC(NC(=O)CNC(=O)c2ccc3c(c2)nc(Nc2nc4ccc(Cl)cc4s2)n3C)CC1` [Example 386, 2-(6-Chloro-benzothiazol-2-ylamino)-1-methyl-1H-benzoimidazole-5-carboxylic acid [(1-methyl-piperidin-4-ylcarbamoyl)-methyl]-amide] had a fold induction at 5 µM of 58.3.

Take `CNC(=O)c1ccc2c(c1)nc(Nc1nc3cc(OC(F)(F)F)ccc3s1)n2C` [Example 115, 1-Methyl-2-(5-trifluoromethoxy-benzothiazol-2-ylamino)-1H-benzimidazole-5-carboxylic acid methylamide]: the fold induction at 5 µM worked out at 1.5.

The compound `Cn1c(Nc2nc3ccc(OC(F)(F)F)cc3s2)nc2cc(C(=O)NCC3CCOCC3)ccc21` [Example 17, 1-Methyl-2-(6-trifluoromethoxy-benzothiazol-2-ylamino)-1H-benzoimidazole-5-carboxylic acid (tetrahydro-pyran-4-ylmethyl)-amide] came in with a fold induction at 5 µM of 21.4.

`COCCOCCNC(=O)c1ccc2c(c1)nc(Nc1nc3ccc(OC(F)(F)F)cc3s1)n2C` [Example 260, 1-Methyl-2-(6-trifluoromethoxy-benzothiazol-2-ylamino)-1H-benzoimidazole-5-carboxylic acid [2-(2-methoxy-ethoxy)-ethyl]-amide] came in with a fold induction at 5 µM of 27.1.

With `Cn1c(Nc2nc3ccc(OC(F)(F)F)cc3s2)nc2cc(C(=O)NCC(C)(C)CO)ccc21` [Example 217, 1-Methyl-2-(6-trifluoromethoxy-benzothiazol-2-ylamino)-1H-benzoimidazole-5-carboxylic acid (3-hydroxy-2,2-dimethyl-propyl)-amide], the fold induction at 5 µM came out at 20.7.

With `CCNC(=O)c1ccc2c(c1)nc(Nc1nc3ccc(Cl)cc3s1)n2C` [Example 32, 2-(6-Chloro-benzothiazol-2-ylamino)-1-methyl-1H-benzoimidazole-5-carboxylic acid ethylamide], the fold induction at 5 µM came to 12.6.

`COCCNC(=O)c1ccc2c(c1)nc(Nc1nc3ccc(OC(F)(F)F)cc3s1)n2CCF` [Example 171, 1-(2-Fluoro-ethyl)-2-(6-trifluoromethoxy-benzothiazol-2-ylamino)-1H-benzoimidazole-5-carboxylic acid (2-methoxy-ethyl)-amide] displayed a fold induction at 5 µM of 22.8.

Turning to `Cn1c(Nc2nc3ccc(OC(F)(F)F)cc3s2)nc2cc(C(=O)NCC(=O)O)ccc21` [Example 83, {[1-Methyl-2-(6-trifluoromethoxy-benzothiazol-2-ylamino)-1H-benzoimidazole-5-carbonyl]-amino}-acetic acid], the fold induction at 5 µM was 1.25.

Regarding `CNCC1CCCN(C(=O)CNC(=O)c2ccc3c(c2)nc(Nc2nc4ccc(Cl)cc4s2)n3C)C1` (centres unmarked) [Example 460, 2-(6-Chloro-benzothiazol-2-ylamino)-1-methyl-1H-benzoimidazole-5-carboxylic acid [2-(3-methylaminomethyl-piperidin-1-yl)-2-oxo-ethyl]-amid hydrochloride], the fold induction at 5 µM is 27.5.

Regarding `CCNC(=O)c1cc2nc(Nc3nc4ccc(OC(F)(F)F)cc4s3)n(C)c2cc1F` [Example 42, 6-Fluoro-1-methyl-2-(6-trifluoromethoxy-benzothiazol-2-ylamino)-1H-benzoimidazole-5-carboxylic acid ethylamide], the fold induction at 5 µM amounted to 34.7.

`Cn1c(Nc2nc3ccc(Cl)cc3s2)nc2cc(C(=O)NC3CCN(CCNS(C)(=O)=O)C3)ccc21` (centres unmarked) [Example 300, 2-(6-Chloro-benzothiazol-2-ylamino)-1-methyl-1H-benzoimidazole-5-carboxylic acid [1-(2-methanesulfonylamino-ethyl)-pyrrolidin-3-yl]-amide] yielded a fold induction at 5 µM of 26.2.

The compound `Cn1c(Nc2nc3ccc(OC(F)(F)F)cc3s2)nc2cc(C(=O)NCCOCCC#N)ccc21` [Example 265, 1-Methyl-2-(6-trifluoromethoxy-benzothiazol-2-ylamino)-1H-benzoimidazole-5-carboxylic acid [2-(2-cyano-ethoxy)-ethyl]-amide] registered a fold induction at 5 µM of 55.

In the case of `CCCNC(=O)c1ccc2c(c1)nc(Nc1nc3ccc(OC(F)(F)F)cc3s1)n2C` [Example 12, 1-Methyl-2-(6-trifluoromethoxy-benzothiazol-2-ylamino)-1H-benzoimidazole-5-carboxylic acid propylamide], the fold induction at 5 µM worked out at 16.2.

Compound `CN(C)C(=O)[C@H]1CC[C@H](NC(=O)c2ccc3c(c2)nc(Nc2nc4ccc(Cl)cc4s2)n3C)CC1` [Example 379, 2-(6-Chloro-benzothiazol-2-ylamino)-1-methyl-1H-benzoimidazole-5-carboxylic acid (4-trans-dimethylcarbamoyl-cyclohexyl)-amide] displayed a fold induction at 5 µM of 21.7.

In the case of `Cn1c(Nc2nc3ccc(S(C)(=O)=O)cc3s2)nc2cc(C(=O)NCCS(C)(=O)=O)ccc21` [Example 131, 2-(6-Methanesulfonyl-benzothiazol-2-ylamino)-1-methyl-1H-benzimidazole-5-carboxylic acid (2-methylsulfonyl-ethyl)-amide], the fold induction at 5 µM is 6.8.

Turning to `CNC1CCN(C(=O)CNC(=O)c2ccc3c(c2)nc(Nc2nc4ccc(OC(F)(F)F)cc4s2)n3C)CC1` [Example 453, 1-Methyl-2-(6-trifluoromethoxy-benzothiazol-2-ylamino)-1H-benzoimidazole-5-carboxylic acid [2-(4-methylamino-piperidin-1-yl)-2-oxo-ethyl]-amide hydrochloride], the fold induction at 5 µM turned out to be 81.1.

As for `CC(O)CNC(=O)c1cc2nc(Nc3nc4ccc(OC(F)(F)F)cc4s3)n(C)c2cc1F` (centres unmarked) [Example 60, 6-Fluoro-1-methyl-2-(6-trifluoromethoxy-benzothiazol-2-ylamino)-1H-benzoimidazole-5-carboxylic acid (2-hydroxy-propyl)-amide], the fold induction at 5 µM is 39.8.

In the case of `C[C@H](O)C(=O)NCCNC(=O)c1ccc2c(c1)nc(Nc1nc3ccc(OC(F)(F)F)cc3s1)n2C` [Example 326, 1-Methyl-2-(6-trifluoromethoxy-benzothiazol-2-ylamino)-1H-benzoimidazole-5-carboxylic acid [2-((S)-2-hydroxy-propionylamino)-ethyl]-amide], the fold induction at 5 µM stood at 34.3.

`Cn1c(Nc2nc3ccc(OC(F)(F)F)cc3s2)nc2cc(C(=O)NCCN3CCNC3=O)ccc21` [Example 330, 1-Methyl-2-(6-trifluoromethoxy-benzothiazol-2-ylamino)-1H-benzoimidazole-5-carboxylic acid [2-(2-oxo-imidazolidin-1-yl)-ethyl]-amide] showed a fold induction at 5 µM of 37.7.
